Experimental data reported in ChEMBL document CHEMBL1201862, “PubChem BioAssay data set” (2004).
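Step 1: Grow cells in 96-well plates. Step 2: Expose to compound for 48 hours at 5 concentrations. Step 3: Interpolate endpoints linearly; if unreached, use highest concentration. GI50 is the concentration that inhibits growth by half.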 Active and inactive are the calls of the source. Rule as the data show it: active = GI50 up to about 1.1 µM and inactive = higher.

Experiments:
Assay in all cases: DTP human tumour cell line panel, 48 h
786-0 = tested on: 786-0
A498 = tested on: A498
CAKI-1 = tested on: CAKI-1
HCC 2998 = tested on: HCC 2998
LOX IMVI = tested on: LOX IMVI
M14 = tested on: M14
MDA-MB-231 = tested on: MDA-MB-231
MDA-N = tested on: MDA-N
MOLT-4 = tested on: MOLT-4
Malme-3M = tested on: Malme-3M
NCI-H226 = tested on: NCI-H226
OVCAR-4 = tested on: OVCAR-4
PC-3 = tested on: PC-3
SF-268 = tested on: SF-268
SF-295 = tested on: SF-295
SK-MEL-28 = tested on: SK-MEL-28
SK-MEL-5 = tested on: SK-MEL-5
T47D = tested on: T47D
UACC-257 = tested on: UACC-257
UACC-62 = tested on: UACC-62

Structure (SMILES)	GI50 (786-0)	GI50 (A498)	GI50 (CAKI-1)	GI50 (HCC 2998)	GI50 (LOX IMVI)	GI50 (M14)	GI50 (MDA-MB-231)	GI50 (MDA-N)	GI50 (MOLT-4)	GI50 (Malme-3M)	GI50 (NCI-H226)	GI50 (OVCAR-4)	GI50 (PC-3)	GI50 (SF-268)	GI50 (SF-295)	GI50 (SK-MEL-28)	GI50 (SK-MEL-5)	GI50 (T47D)	GI50 (UACC-257)	GI50 (UACC-62)
C=C(Br)CNC(=O)CCC(=O)NCC(=C)Br	> 100 µM (inactive)	> 100 µM (inactive)	> 100 µM (inactive)	> 100 µM (inactive)	> 100 µM (inactive)	> 100 µM (inactive)	> 100 µM (inactive)	> 100 µM (inactive)	> 100 µM (inactive)	> 100 µM (inactive)	> 100 µM (inactive)	> 100 µM (inactive)	> 100 µM (inactive)	> 100 µM (inactive)	> 100 µM (inactive)	> 100 µM (inactive)	> 100 µM (inactive)	> 100 µM (inactive)	> 100 µM (inactive)	> 100 µM (inactive)
Nc1ncnc2c1cnn2COCC(O)CO (stereo not given)	> 100 µM (inactive)	> 100 µM (inactive)	> 100 µM (inactive)	> 100 µM (inactive)	> 100 µM (inactive)	> 100 µM (inactive)	> 100 µM (inactive)	> 100 µM (inactive)	> 100 µM (inactive)	> 100 µM (inactive)	> 100 µM (inactive)	> 100 µM (inactive)	> 100 µM (inactive)	> 100 µM (inactive)	> 100 µM (inactive)	> 100 µM (inactive)	> 100 µM (inactive)	> 100 µM (inactive)	> 100 µM (inactive)	> 100 µM (inactive)
NC(=O)c1cc2ccc(O)cc2o/c1=N/c1ccccc1	30.3 µM (inactive)	16.3 µM (inactive)	19.3 µM (inactive)	22.2 µM (inactive)	24 µM (inactive)	29.5 µM (inactive)	67.8 µM (inactive)	22.5 µM (inactive)	29 µM (inactive)	50.8 µM (inactive)	17.1 µM (inactive)	42.3 µM (inactive)	37.7 µM (inactive)	51.2 µM (inactive)	43.5 µM (inactive)	35.6 µM (inactive)	18.4 µM (inactive)	16 µM (inactive)	39.3 µM (inactive)	28.5 µM (inactive)
CCN(C(=O)N[C@H](C(=O)N[C@@H](C)C(=O)OC)C(C)C)c1ccccc1	27.3 µM (inactive)	46.3 µM (inactive)	> 100 µM (inactive)	17.4 µM (inactive)	> 100 µM (inactive)	31 µM (inactive)	> 100 µM (inactive)	34.2 µM (inactive)	65.2 µM (inactive)	20 µM (inactive)	> 100 µM (inactive)	65 µM (inactive)	39.1 µM (inactive)	> 100 µM (inactive)	70 µM (inactive)	33.1 µM (inactive)	36.8 µM (inactive)	29.8 µM (inactive)	20 µM (inactive)	22.1 µM (inactive)
N#Cc1nc(COCCOCc2ccccc2)oc1N	> 100 µM (inactive)	> 100 µM (inactive)	> 100 µM (inactive)	> 100 µM (inactive)	> 100 µM (inactive)	> 100 µM (inactive)	> 100 µM (inactive)	> 100 µM (inactive)	> 100 µM (inactive)	> 100 µM (inactive)	> 100 µM (inactive)	> 100 µM (inactive)	> 100 µM (inactive)	> 100 µM (inactive)	> 100 µM (inactive)	> 100 µM (inactive)	> 100 µM (inactive)	> 100 µM (inactive)	> 100 µM (inactive)	> 100 µM (inactive)
O=P(NC12CC3CC(CC(C3)C1)C2)(N1CC1)N1CC1	23.2 µM (inactive)	45.5 µM (inactive)	1.82 µM (inactive)	> 100 µM (inactive)	11.1 µM (inactive)	37.1 µM (inactive)	> 100 µM (inactive)	> 100 µM (inactive)	3.3 µM (inactive)	84.9 µM (inactive)	41.6 µM (inactive)	> 100 µM (inactive)	> 100 µM (inactive)	12.3 µM (inactive)	10 µM (inactive)	> 100 µM (inactive)	34.9 µM (inactive)	94.8 µM (inactive)	> 100 µM (inactive)	4.16 µM (inactive)
CCc1nc(N)nc(N)c1-c1ccc2nn(-c3ccccc3)[n+]([O-])c2c1	1.16 µM (inactive)	8.43 µM (inactive)	4.47 µM (inactive)	4.59 µM (inactive)	1.01 µM (active)	1.33 µM (inactive)	11.7 µM (inactive)	0.895 µM (active)	2.84 µM (inactive)	10.7 µM (inactive)	14.5 µM (inactive)	11.9 µM (inactive)	1.23 µM (inactive)	5.12 µM (inactive)	2.4 µM (inactive)	11.8 µM (inactive)	2.61 µM (inactive)	13.1 µM (inactive)	10.6 µM (inactive)	1.02 µM (active)
